Laboratory results reported in US20240327430A1 (Breakpoint Therapeutics GmbH, priority 2023, published 2024).

target: truncated Polθ protein (Polθ-Hel containing the helicase domain (67-894)) (Homo sapiens (Human), UniProt O75417); test: Polθ ATPase assay (Biological Assay 1, ADP-Glo luminescence); assay type: biochemical; conditions: Polθ-Hel 0.5 nM, DNA substrate 500 nM, ATP 60 μM, 23° C.; read-out: Pole ATPase assay IC50
Experimental: The Polθ ATPase assay was used to evaluate inhibitors of Polθ ATPase activity, in vitro. Experiments were performed using a truncated Polθ protein (Polθ-Hel containing the helicase domain (67-894), ATP and a DNA single strand Oligo (5′-CTGTCCTGCATGATG-3′) in the Polθ assay buffer (20 mM Tis-HCl (pH 8.8), MgCl2 5 mM, tween20 0.01%, NP40 0.01%, BSA 0.01%, DTT 1 mM). 2 μL of assay buffer containing Pole-Hel protein (0.5 nM) and DNA substrate (500 nM) was transferred into assay ready plates, containing 0.04 μL of compounds diluted in DMSO. After a 30 minutes incubation at 23° C. in the dark, the reaction was triggered by adding 2 μL of ATP (60 μM), in assay buffer. After 60 minutes at 23° C., 4 μl of ADP-Glo™ Reagent (Glo 1) was added followed by 40 minutes of incubation, then 8 μl of ADP-Glom kinase Detection Reagent (Glo 2) followed by 60 minutes of incubation at 23° C. Luminescence was then measured using Tecan F200 infinite plate reader. Raw data were analysed using GeneData to generate IC50 values.
The Polθ ATPase assay described in Biological Assay 1 above was used to evaluate inhibitors of Polθ ATPase activity for the compounds described in the Experimental Part B above, in vitro.

Sequence of truncated Polθ protein (Polθ-Hel containing the helicase domain (67-894)) (O75417 67-894): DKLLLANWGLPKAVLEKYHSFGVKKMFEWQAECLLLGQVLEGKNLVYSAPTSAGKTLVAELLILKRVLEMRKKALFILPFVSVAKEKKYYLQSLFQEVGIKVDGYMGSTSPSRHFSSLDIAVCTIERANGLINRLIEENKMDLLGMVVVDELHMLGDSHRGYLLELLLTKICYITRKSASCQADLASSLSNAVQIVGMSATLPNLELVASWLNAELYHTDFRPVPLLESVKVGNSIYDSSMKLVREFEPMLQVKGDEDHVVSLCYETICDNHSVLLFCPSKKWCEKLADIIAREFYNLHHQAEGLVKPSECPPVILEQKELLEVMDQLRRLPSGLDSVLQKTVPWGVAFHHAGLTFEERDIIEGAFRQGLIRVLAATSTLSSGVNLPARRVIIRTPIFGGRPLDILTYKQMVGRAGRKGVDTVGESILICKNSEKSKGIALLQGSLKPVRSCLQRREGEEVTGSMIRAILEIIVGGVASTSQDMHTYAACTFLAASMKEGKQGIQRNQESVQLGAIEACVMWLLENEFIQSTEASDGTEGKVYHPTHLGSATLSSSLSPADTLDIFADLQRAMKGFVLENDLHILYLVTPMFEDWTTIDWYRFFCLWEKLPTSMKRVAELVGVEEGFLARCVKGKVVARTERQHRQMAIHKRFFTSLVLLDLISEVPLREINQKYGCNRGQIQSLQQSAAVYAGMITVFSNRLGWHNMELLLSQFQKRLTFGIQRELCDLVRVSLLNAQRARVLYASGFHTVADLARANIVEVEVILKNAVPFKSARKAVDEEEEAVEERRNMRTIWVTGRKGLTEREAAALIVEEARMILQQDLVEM

SMILES	IC50 [nM]
COc1cnc(Cl)cc1-c1cc(C)ncc1C(=O)Nc1nc2cnccc2s1 [Example 62, 2′-chloro-5′-methoxy-6-methyl-N-{[1,3]thiazolo[4,5-c]pyridin-2-yl}-[4,4′-bipyridine]-3-carboxamide]	< 100
COc1cnc(Cl)cc1-c1cc(C)ncc1C(=O)Nc1nc2ccc(S(=O)(=O)N(C)C)cc2s1 [Example 66, 2′-chloro-N-[6-(dimethylsulfamoyl)-1,3-benzothiazol-2-yl]-5′-methoxy-6-methyl-[4,4′-bipyridine]-3-carboxamide]	< 100
COc1ccccc1-c1cnccc1C(=O)Nc1nc2ccc(Br)cc2s1 [Example 9, N-(6-bromo-1,3-benzothiazol-2-yl)-3-(2-methoxyphenyl)pyridine-4-carboxamide]	100 to 1000
COc1cnc(Cl)cc1-c1cc(C)ncc1C(=O)Nc1nc2ccc(N3CCOCC3)nc2s1 [Example 72, 2′-chloro-5′-methoxy-6-methyl-N-[5-(morpholin-4-yl)-[1,3]thiazolo[5,4-b]pyridin-2-yl]-[4,4′-bipyridine]-3-carboxamide]	< 100
COc1cnc(Cl)cc1-c1cc(C)ncc1C(=O)Nc1nc2cnc(N3CCC(F)(F)C3)nc2s1 [Example 25, 2′-chloro-N-[5-(3,3-difluoropyrrolidin-1-yl)-[1,3]thiazolo[5,4-d]pyrimidin-2-yl]-5′-methoxy-6-methyl-[4,4′-bipyridine]-3-carboxamide]	< 100
COc1ccccc1-c1cnccc1C(=O)Nc1nc2cc(Cl)ccc2s1 [Example 13, N-(5-chloro-1,3-benzothiazol-2-yl)-3-(2-methoxyphenyl)pyridine-4-carboxamide]	> 1000
COc1cnc(C)cc1-c1cc(C)ncc1C(=O)Nc1nc2cnc(N3CCOCC3)nc2s1 [Example 92, 5′-methoxy-2′,6-dimethyl-N-[5-(morpholin-4-yl)-[1,3]thiazolo[5,4-d]pyrimidin-2-yl]-[4,4′-bipyridine]-3-carboxamide]	< 100
COc1cnc(Cl)cc1-c1cc(C)ncc1C(=O)Nc1nc2cnc(NC3CCC(O)CC3)nc2s1 (centres unmarked) [Example 48, 2′-chloro-N-{5-[(4-hydroxycyclohexyl)amino]-[1,3]thiazolo[5,4-d]pyrimidin-2-yl}-5′-methoxy-6-methyl-[4,4′-bipyridine]-3-carboxamide]	< 100
COc1cnc(Cl)cc1-c1cc(C)ncc1C(=O)Nc1nc2cnc(N3CCC(OC)CC3)nc2s1 [Example 80, 2′-chloro-5′-methoxy-N-[5-(4-methoxypiperidin-1-yl)-[1,3]thiazolo[5,4-d]pyrimidin-2-yl]-6-methyl-[4,4′-bipyridine]-3-carboxamide]	< 100
COc1cnc(Cl)cc1-c1cc(C)ncc1C(=O)Nc1nc2cc(Cl)ncc2s1 [Example 63, 2′-chloro-N-{6-chloro-[1,3]thiazolo[5,4-c]pyridin-2-yl}-5′-methoxy-6-methyl-[4,4′-bipyridine]-3-carboxamide]	< 100
COCCNc1ncc2nc(NC(=O)c3cnc(C)cc3-c3cc(Cl)ncc3OC)sc2n1 [Example 30, 2′-chloro-5′-methoxy-N-{5-[(2-methoxyethyl)amino]-[1,3]thiazolo[5,4-d]pyrimidin-2-yl}-6-methyl-[4,4′-bipyridine]-3-carboxamide]	< 100
COc1cnc(Cl)cc1-c1cc(C)ncc1C(=O)Nc1nc2cnc(C)nc2s1 [Example 91, 2′-chloro-5′-methoxy-6-methyl-N-{5-methyl-[1,3]thiazolo[5,4-d]pyrimidin-2-yl}-[4,4′-bipyridine]-3-carboxamide]	< 100

same assay, conditions: Table B; compounds of Experimental Part B, in vitro; read-out: Polθ ATPase assay IC50

SMILES	IC50 [nM]
COc1cnc(Cl)cc1-c1cc(C)ncc1C(=O)Nc1nc2cc(OCCO)ccc2s1 [Example 124, 2′-chloro-N-[5-(2-hydroxyethoxy)-1,3-benzothiazol-2-yl]-5′-methoxy-6-methyl-[4,4′-bipyridine]-3-carboxamide]	< 100
COc1cnc(Cl)cc1-c1cc(C)ncc1C(=O)Nc1nc2cc(Br)ccc2s1 [Example 103, N-(5-bromo-1,3-benzothiazol-2-yl)-2′-chloro-5′-methoxy-6-methyl-[4,4′-bipyridine]-3-carboxamide]	< 100
